Data published in PubChem BioAssay AID292 (DTP/NCI, 2004).
“And” between values parts separate entries of the source, which are not always exact repeats. Equal values may be shown once. Inconclusive results and toxic doses are left out. Rule for the calls: active = survival T/C of 150% or more; inactive = T/C below 125% in these data.

System: B6C3F1 mice, ip Sarcoma M5076, median survival T/C
Test: NCI In Vivo Anticancer Drug Screen. Data for tumor model Sarcoma M5076 (intraperitoneal) in B6C3F1 mice
Details: endpoint: median survival time, higher = longer survival
Experimental: The antitumor activity of compounds was measured in mice bearing transplantable tumors. Survival or tumor size were measured and the results are expressed as the measurement made in the treated group (T) divided by the measurement made in the vehicle treated control group (C). The tumor model used in this assay is Sarcoma M5076 (intraperitoneal) in B6C3F1 mice

[1] = dose: 50.0 mg/kg/injection, schedule: Q04DX004 (ip), vehicle: Klucel (hydroxypropylcellulose) (HPC)
[2] = dose: 100.0 mg/kg/injection, schedule: Q04DX004 (ip), vehicle: Klucel (hydroxypropylcellulose) (HPC)
[3] = dose: 12.5 mg/kg/injection, schedule: Q04DX004 (ip), vehicle: saline with Tween-80
[4] = dose: 25.0 mg/kg/injection, schedule: Q04DX004 (ip), vehicle: saline with Tween-80
[5] = dose: 50.0 mg/kg/injection, schedule: Q04DX004 (ip), vehicle: saline with Tween-80
[6] = dose: 100.0 mg/kg/injection, schedule: Q04DX004 (ip), vehicle: saline with Tween-80
[7] = dose: 200.0 mg/kg/injection, schedule: Q04DX004 (ip), vehicle: saline with Tween-80
[8] = dose: 400.0 mg/kg/injection, schedule: Q04DX004 (ip), vehicle: saline with Tween-80
[9] = dose: 800.0 mg/kg/injection, schedule: Q04DX004 (ip), vehicle: saline with Tween-80
[10] = dose: 200.0 mg/kg/injection, schedule: Q04DX004 (ip), vehicle: Klucel (hydroxypropylcellulose) (HPC)
[11] = dose: 400.0 mg/kg/injection, schedule: Q04DX004 (ip), vehicle: Klucel (hydroxypropylcellulose) (HPC)

Measured: T/C

CCOc1ccc(-c2nc3ccc(-c4nc5ccc(N6CCN(C)CC6)cc5[nH]4)cc3[nH]2)cc1
inactive: dose: 3.12 mg/kg/injection, schedule: Q04DX004 (ip), vehicle: saline 100 % of control | dose: 6.25 mg/kg/injection, schedule: Q04DX004 (ip), vehicle: saline 88 % of control | dose: 12.5 mg/kg/injection, schedule: Q04DX004 (ip), vehicle: saline 100 % of control | dose: 25.0 mg/kg/injection, schedule: Q04DX004 (ip), vehicle: saline 92 % of control

N#CC(=C1C=CC(=NO)C=C1)c1ccc(Cl)cc1
inactive: dose: 600.0 mg/kg/injection, schedule: Q04DX004 (ip), vehicle: saline with Tween-80 96 % of control

CC(=O)C1C(=O)C(=O)N(c2ccc(C)cc2C)C1=O (centres undefined)
inactive: [1] 102 % of control | [2] 98 % of control

COC(=O)c1cc(=O)c2c(ccc3oc(=O)ccc32)[nH]1
inactive: [3] 104 % of control | [4] 96 % of control | [5] 92 % of control | [6] 89 % of control | [7] 89 % of control

CN(C)N=Nc1ccc(C(N)=O)cc1
active: [6] 151 % of control | [7] 163 % of control
inactive: [4] 120 % of control and 121 % of control | [8] 109 % of control

NC(Cc1ccc[se]1)C(=O)O (centres undefined)
inactive: [3] 94 % of control | [4] 103 % of control | [5] 109 % of control

CC(C)CCC(=O)c1ccoc1
inactive: dose: 0.25 mg/kg/injection, schedule: Q03HX012 (ip), vehicle: saline with Tween-80 96 % of control | dose: 0.5 mg/kg/injection, schedule: Q03HX012 (ip), vehicle: saline with Tween-80 96 % of control | dose: 1.0 mg/kg/injection, schedule: Q03HX012 (ip), vehicle: saline with Tween-80 90 % of control | dose: 2.0 mg/kg/injection, schedule: Q03HX012 (ip), vehicle: saline with Tween-80 99 % of control

O=C1CN2CCN3CC(=O)NC(=O)[C@H]3[C@@H]2C(=O)N1
inactive: dose: 31.0 mg/kg/injection, schedule: Q04DX004 (ip), vehicle: saline with Tween-80 93 % of control | dose: 62.0 mg/kg/injection, schedule: Q04DX004 (ip), vehicle: saline with Tween-80 94 % of control | dose: 125.0 mg/kg/injection, schedule: Q04DX004 (ip), vehicle: saline with Tween-80 93 % of control | dose: 250.0 mg/kg/injection, schedule: Q04DX004 (ip), vehicle: saline with Tween-80 100 % of control | dose: 500.0 mg/kg/injection, schedule: Q04DX004 (ip), vehicle: saline with Tween-80 98 % of control

Cc1cc(=O)n(Cc2ccco2)c(=S)[nH]1
inactive: [5] 105 % of control | [6] 105 % of control | [7] 100 % of control | [8] 89 % of control | [9] 106 % of control

COC(=O)[C@@]12OC[C@]34[C@H]([C@@H](O)[C@@H]1O)[C@@]1(C)CC(=O)C(O)=C(C)[C@@H]1C[C@H]3OC(=O)[C@H](OC(=O)/C=C(\C)C(C)C)[C@@H]24
inactive: dose: 0.12 mg/kg/injection, schedule: Q04DX005 (ip), vehicle: saline 97 % of control and 101 % of control | dose: 0.13 mg/kg/injection, schedule: Q04DX004 (ip), vehicle: saline 97 % of control and 112 % of control and 124 % of control | dose: 0.13 mg/kg/injection, schedule: Q04DX005 (ip), vehicle: saline 117 % of control and 122 % of control

S=c1sc(-c2ccc(Cl)cc2)nn1CSc1nc2ccccc2[nH]1
inactive: dose: 37.5 mg/kg/injection, schedule: Q04DX004 (ip), vehicle: saline with Tween-80 105 % of control | dose: 75.0 mg/kg/injection, schedule: Q04DX004 (ip), vehicle: saline with Tween-80 98 % of control | dose: 150.0 mg/kg/injection, schedule: Q04DX004 (ip), vehicle: saline with Tween-80 96 % of control | dose: 300.0 mg/kg/injection, schedule: Q04DX004 (ip), vehicle: saline with Tween-80 95 % of control

COc1ncc(Br)cc1C(=O)NCCc1ccc(S(=O)(=O)NC(=O)NC2CCCCC2)cc1
inactive: [3] 100 % of control | [4] 102 % of control | [5] 100 % of control

CC[C@@]1(O)C(=O)OCc2c1cc1n(c2=O)Cc2cc3cc(O)ccc3nc2-1
active: dose: 3.75 mg/kg/injection, schedule: Q04DX004 (ip), vehicle: suspension in saline 162 % of control
inactive: dose: 0.86 mg/kg/injection, schedule: Q04DX004 (ip), vehicle: suspension in saline 104 % of control | dose: 1.44 mg/kg/injection, schedule: Q04DX004 (ip), vehicle: suspension in saline 109 % of control | dose: 1.88 mg/kg/injection, schedule: Q04DX004 (ip), vehicle: suspension in saline 106 % of control | dose: 2.4 mg/kg/injection, schedule: Q04DX004 (ip), vehicle: suspension in saline 115 % of control | dose: 6.67 mg/kg/injection, schedule: Q04DX004 (ip), vehicle: suspension in saline 116 % of control

CCNC(=O)OCc1cnc(C)c(O)c1COC(=O)NCC
inactive: dose: 50.0 mg/kg/injection, schedule: Q04DX004 (ip), vehicle: saline 97 % of control | dose: 100.0 mg/kg/injection, schedule: Q04DX004 (ip), vehicle: saline 107 % of control | dose: 200.0 mg/kg/injection, schedule: Q04DX004 (ip), vehicle: saline 108 % of control | dose: 400.0 mg/kg/injection, schedule: Q04DX004 (ip), vehicle: saline 102 % of control

O=[N+]([O-])c1c(O)c(CNCCCO)cc(CNCCCO)c1O
inactive: dose: 6.25 mg/kg/injection, schedule: Q04DX004 (ip), vehicle: suspension in saline 98 % of control | dose: 12.5 mg/kg/injection, schedule: Q04DX004 (ip), vehicle: suspension in saline 99 % of control | dose: 25.0 mg/kg/injection, schedule: Q04DX004 (ip), vehicle: suspension in saline 101 % of control | dose: 50.0 mg/kg/injection, schedule: Q04DX004 (ip), vehicle: suspension in saline 118 % of control

CC(C)(C)c1ccc(C(=O)N2CCOC23CCCCC3)cc1
inactive: [5] 101 % of control and 103 % of control | [6] 93 % of control and 103 % of control | [7] 97 % of control and 98 % of control | [8] 91 % of control and 100 % of control | [9] 89 % of control and 93 % of control

Cc1ccoc1
inactive: dose: 16.8 mg/kg/injection, schedule: Q03HX012 (ip), vehicle: saline with Tween-80 101 % of control | dose: 33.3 mg/kg/injection, schedule: Q03HX012 (ip), vehicle: saline with Tween-80 93 % of control | dose: 66.6 mg/kg/injection, schedule: Q03HX012 (ip), vehicle: saline with Tween-80 96 % of control | dose: 133.3 mg/kg/injection, schedule: Q03HX012 (ip), vehicle: saline with Tween-80 100 % of control

COc1ccc(-c2c(N3CCOCC3)oc3cc(N4CCOCC4)c(O)cc23)cc1
inactive: [5] 95 % of control | [6] 104 % of control | [7] 98 % of control | [8] 95 % of control

N#CC1C(=O)NC(=S)NC1CCc1ccccc1 (centres undefined)
inactive: [1] 95 % of control | [2] 100 % of control | [10] 108 % of control

N=C(N)c1ccc(N=NNc2ccc(C(=N)N)cc2)cc1
inactive: [4] 96 % of control | [5] 97 % of control

O=C(c1ncccc1O)N1CCCCC1
inactive: dose: 40.63 mg/kg/injection, schedule: Q04DX004 (ip), vehicle: distilled water + Tween-80 86 % of control | dose: 81.25 mg/kg/injection, schedule: Q04DX004 (ip), vehicle: distilled water + Tween-80 103 % of control | dose: 325.0 mg/kg/injection, schedule: Q04DX004 (ip), vehicle: distilled water + Tween-80 97 % of control | dose: 650.0 mg/kg/injection, schedule: Q04DX004 (ip), vehicle: distilled water + Tween-80 90 % of control

C/C(=C\c1ccccc1)C1C(C#N)C(=O)NC(=O)C1C#N (centres undefined)
inactive: [1] 100 % of control | [2] 113 % of control | [10] 106 % of control | [11] 106 % of control

Cc1ccc2c(c1)n([O-])c1cc(Cl)ccc1[n+]2=O
inactive: [4] 104 % of control | [5] 113 % of control | [6] 109 % of control | dose: 144.0 mg/kg/injection, schedule: Q04DX004 (ip), vehicle: saline with Tween-80 120 % of control

N#CC1C(=O)NC(=O)C(C#N)C1C(Cl)(Cl)Cl (centres undefined)
inactive: [1] 94 % of control | [2] 95 % of control

NC(N)=NS(=O)(=O)c1ccc(NCc2c3ccccc3nc3ccccc23)cc1
active: [1] 159 % of control | [2] 151 % of control | [10] 178 % of control | [11] 158 % of control and 207 % of control | dose: 800.0 mg/kg/injection, schedule: Q04DX004 (ip), vehicle: Klucel (hydroxypropylcellulose) (HPC) 167 % of control and 194 % of control
